Assay results taken from US6472391B2, “Nitrogen-containing heterocyclic compounds” (Millennium Pharmaceuticals, Inc., priority 1996, dated 2002).

Compound COc1cc2ncnc(N3CCN(C(=O)Nc4ccc(I)cc4)CC3)c2cc1OC [Compound 46, 4-(6,7-Dimethoxy-4-quinazolinyl)-N-(4-iodophenyl)-1-piperazinecarboxamide] has a melting point of 238 to 242 °C.

COc1cc2ncnc(N3CCN(C(=S)Nc4ccc(I)cc4)CC3)c2cc1OC [Compound 47, 4-(6,7-Dimethoxy-4-quinazolinyl)-N-(4-iodophenyl)-1-piperazinethiocarboxamide] gave a melting point of 129 to 132 °C.

With COc1cc2ncnc(N3CCN(C(=O)Nc4ccc(Cl)cc4C(F)(F)F)CC3)c2cc1OC [Compound 48, N-[4-Chloro-2-(trifluoromethyl)phenyl]-4-(6,7-dimethoxy-4-quinazolinyl)-1-piperazinecarboxamide] the melting point was 189 to 190 °C.

COc1cc2ncnc(N3CCN(C(=O)Nc4ccc(Cl)c(C(F)(F)F)c4)CC3)c2cc1OC [Compound 49, N-[4-Chloro-3-(trifluoromethyl)phenyl]-4-(6,7-dimethoxy-4-quinazolinyl)-1-piperazinecarboxamide] gave a melting point of 237 to 238 °C.

In the case of COc1cc2ncnc(N3CCN(C(=O)Nc4ccc(F)cc4F)CC3)c2cc1OC [Compound 50, N-(2,4-Difluorophenyl)-4-(6,7-dimethoxy-4-quinazolinyl)-1-piperazinecarboxamide], the melting point was 174 to 175 °C.

Work on COc1cc2ncnc(N3CCN(C(=O)Nc4cc(F)ccc4F)CC3)c2cc1OC [Compound 51, N-(2,5-Difluorophenyl)-4-(6,7-dimethoxy-4-quinazolinyl)-1-piperazinecarboxamide] yielded a melting point of 187 to 189 °C.

COc1cc2ncnc(N3CCN(C(=O)Nc4c(Cl)cccc4Cl)CC3)c2cc1OC [Compound 52, N-(2,6-Dichlorophenyl)-4-(6,7-dimethoxy-4-quinazolinyl)-1-piperazinecarboxamide] showed a melting point of 202 to 207 °C.

For COc1cc2ncnc(N3CCN(C(=O)Nc4ccc(Cl)cc4Cl)CC3)c2cc1OC [Compound 53, N-(2,4-Dichlorophenyl)-4-(6,7-dimethoxy-4-quinazolinyl)-1-piperazinecarboxamide], the melting point was 166 to 167 °C.

Work on COc1cc2ncnc(N3CCN(C(=O)Nc4cc(Cl)cc(Cl)c4)CC3)c2cc1OC [Compound 55, N-(3,5-Dichlorophenyl)-4-(6,7-dimethoxy-4-quinazolinyl)-1-piperazinecarboxamide] yielded a melting point of 139 to 140 °C.

COc1ccc(NC(=O)N2CCN(c3ncnc4cc(OC)c(OC)cc34)CC2)cc1 [Compound 56, 4-(6,7-Dimethoxy-4-quinazolinyl)-N-(4-methoxyphenyl)-1-piperazinecarboxamide] gave a melting point of 221 to 223 °C.

For CCOc1ccc(NC(=O)N2CCN(c3ncnc4cc(OC)c(OC)cc34)CC2)cc1 [Compound 57, 4-(6,7-Dimethoxy-4-quinazolinyl)-N-(4-ethoxyphenyl)-1-piperazinecarboxamide], the melting point was 165 to 166 °C.

For CCCCOc1ccc(NC(=O)N2CCN(c3ncnc4cc(OC)c(OC)cc34)CC2)cc1 [Compound 58, N-(4-Butoxyphenyl)-4-(6,7-dimethoxy-4-quinazolinyl)-1-piperazinecarboxamide], the melting point was 213 to 214 °C.

In the case of COc1cc2ncnc(N3CCN(C(=O)Nc4ccc(OC(F)(F)F)cc4)CC3)c2cc1OC [Compound 59, 4-(6,7-Dimethoxy-4-quinazolinyl)-N-[4-(trifluoromethoxy)phenyl]-1-piperazinecarboxamide], the melting point was 204 to 205 °C.

COc1cc2ncnc(N3CCN(C(=S)Nc4ccc(Oc5ccccc5)cc4)CC3)c2cc1OC [Compound 61, 4-(6,7-Dimethoxy-4-quinazolinyl)-N-(4-phenoxyphenyl)-1-piperazinethiocarboxamide] showed a melting point of 242 to 243 °C.

COc1cc2ncnc(N3CCN(C(=S)Nc4ccc(Oc5ccc([N+](=O)[O-])cc5)cc4)CC3)c2cc1OC [Compound 62, 4-(6,7-Dimethoxy-4-quinazolinyl)-N-[4-(4-nitrophenoxy)phenyl]-1-piperazinethiocarboxamide] gave a melting point of 204 to 207 °C.

For COc1cc2ncnc(N3CCN(C(=S)Nc4ccc(OCc5ccccc5)cc4)CC3)c2cc1OC [Compound 63, N-(4-Benzyloxyphenyl)-4-(6,7-dimethoxy-4-quinazolinyl)-1-piperazinethiocarboxamide], the melting point was 103 to 105 °C.

COc1ccc(NC(=O)N2CCN(c3ncnc4cc(OC)c(OC)cc34)CC2)c(OC)c1 [Compound 64, N-(2,4-Dimethoxyphenyl)-4-(6,7-dimethoxy-4-quinazolinyl)-1-piperazinecarboxamide] gave a melting point of 187 to 188 °C.

For COc1ccc(OC)c(NC(=O)N2CCN(c3ncnc4cc(OC)c(OC)cc34)CC2)c1 [Compound 65, N-(2,5-Dimethoxyphenyl)-4-(6,7-Dimethoxy-4-quinazolinyl)-1-piperazinecarboxamide], the melting point was 215 to 217 °C.

Work on COc1ccc(NC(=S)N2CCN(c3ncnc4cc(OC)c(OC)cc34)CC2)cc1OC [Compound 66, N-(3,4-Dimethoxyphenyl)-4-(6,7-dimethoxy-4-quinazolinyl)-1-piperazinethiocarboxamide] yielded a melting point of 174 to 176 °C.

In the case of COc1cc(NC(=S)N2CCN(c3ncnc4cc(OC)c(OC)cc34)CC2)cc(OC)c1 [Compound 67, N-(3,5-Dimethoxyphenyl)-4-(6,7-dimethoxy-4-quinazolinyl)-1-piperazinethiocarboxamide], the melting point was 240 to 241 °C.

COc1cc2ncnc(N3CCN(C(=S)Nc4ccc5c(c4)OCO5)CC3)c2cc1OC [Compound 68, 4-(6,7-Dimethoxy-4-quinazolinyl)-N-(3,4-methylenedioxyphenyl)-1-piperazinethiocarboxamide] showed a melting point of 207 to 211 °C.

For COc1cc2ncnc(N3CCN(C(=O)Nc4ccc(SC)cc4)CC3)c2cc1OC [Compound 69, 4-(6,7-dimethoxy-4-quinazolinyl)-N-(4-methylthiophenyl)-1-piperazinecarboxamide], the melting point was 231 to 233 °C.

With COc1cc2ncnc(N3CCN(C(=S)Nc4ccc(Sc5ccc([N+](=O)[O-])cc5)cc4)CC3)c2cc1OC [Compound 70, 4-(6,7-Dimethoxy-4-quinazolinyl)-N-[4-(4-nitrophenylthio)phenyl]-1-piperazinethiocarboxamide] the melting point was 144 to 146 °C.

Compound CCN(CC)c1ccc(NC(=S)N2CCN(c3ncnc4cc(OC)c(OC)cc34)CC2)cc1 [Compound 72, N-(4-Diethylaminophenyl)-4-(6,7-dimethoxy-4-quinazolinyl)-1-piperazinethiocarboxamide] has a melting point of 147 to 148 °C.

Work on COc1cc2ncnc(N3CCN(C(=S)Nc4ccc(N=Nc5ccc(N(C)C)cc5)cc4)CC3)c2cc1OC [Compound 74, 4-(6,7-Dimethoxy-4-quinazolinyl)-N-[4-(4-dimethylaminophenylazo)phenyl]-1-piperazinethiocarboxamide] yielded a melting point of 148 to 149 °C.

For COc1cc2ncnc(N3CCN(C(=O)Nc4ccccc4[N+](=O)[O-])CC3)c2cc1OC [Compound 75, 4-(6,7-Dimethoxy-4-quinazolinyl)-N-(2-nitrophenyl)-1-piperazinecarboxamide], the melting point was 217 to 218 °C.

Work on COc1cc2ncnc(N3CCN(C(=O)Nc4cccc([N+](=O)[O-])c4)CC3)c2cc1OC [Compound 76, 4-(6,7-Dimethoxy-4-quinazolinyl)-N-(3-nitrophenyl)-1-piperazinecarboxamide] yielded a melting point of 123 to 125 °C.

COc1cc2ncnc(N3CCN(C(=S)Nc4ccc([N+](=O)[O-])cc4)CC3)c2cc1OC [Compound 80, 4-(6,7-Dimethoxy-4-quinazolinyl)-N-(4-nitrophenyl)-1-piperazinethiocarboxamide] gave a melting point of 221 to 224 °C.

With COc1cc2ncnc(N3CCN(C(=O)Nc4ccc(F)c([N+](=O)[O-])c4)CC3)c2cc1OC [Compound 81, 4-(6,7-Dimethoxy-4-quinazolinyl)-N-(4-fluoro-3-nitrophenyl)-1-piperazinecarboxamide] the melting point was 243 to 245 °C.

For COc1cc2ncnc(N3CCN(C(=O)Nc4ccc([N+](=O)[O-])cc4Cl)CC3)c2cc1OC [Compound 82, N-(2-Chloro-4-nitrophenyl)-4-(6,7-dimethoxy-4-quinazolinyl)-1-piperazinecarboxamide], the melting point was 194 to 195 °C.

COc1cc2ncnc(N3CCN(C(=O)Nc4ccc(Cl)c([N+](=O)[O-])c4)CC3)c2cc1OC [Compound 83, N-(4-Chloro-3-nitrophenyl)-4-(6,7-dimethoxy-4-quinazolinyl)-1-piperazinecarboxamide] gave a melting point of 253 to 255 °C.

With COc1cc2ncnc(N3CCN(C(=O)Nc4cccc(C#N)c4)CC3)c2cc1OC [Compound 84, N-(3-Cyanophenyl)-4-(6,7-dimethoxy-4-quinazolinyl)-1-piperazinecarboxamide] the melting point was 240 to 244 °C.

COc1cc2ncnc(N3CCN(C(=S)Nc4ccc(C#N)cc4)CC3)c2cc1OC [Compound 85, N-(4-Cyanophenyl)-4-(6,7-dimethoxy-4-quinazolinyl)-1-piperazinethiocarboxamide] gave a melting point of 247 to 252 °C.

Work on COc1cc2ncnc(N3CCN(C(=O)Nc4cccc(C(C)=O)c4)CC3)c2cc1OC [Compound 86, N-(3-Acetylphenyl)-4-(6,7-dimethoxy-4-quinazolinyl)-1-piperazinecarboxamide] yielded a melting point of 241 to 245 °C.

Compound COc1cc2ncnc(N3CCN(C(=O)Nc4ccc(C(C)=O)cc4)CC3)c2cc1OC [Compound 87, N-(4-acetylphenyl)-4-(6,7-dimethoxy-4-quinazolinyl)-1-piperazinecarboxamide] has a melting point of 220 to 222 °C.

For COc1cc2ncnc(N3CCN(C(=S)Nc4ccc(C(=O)c5ccccc5)cc4)CC3)c2cc1OC [Compound 88, N-(4-Benzoylphenyl)-4-(6,7-dimethoxy-4-quinazolinyl)-1-piperazinethiocarboxamide], the melting point was 222 to 223 °C.

For CCOC(=O)c1ccc(NC(=O)N2CCN(c3ncnc4cc(OC)c(OC)cc34)CC2)cc1 [Compound 89, 4-(6,7-dimethoxy-4-quinazolinyl)-N-(4-ethoxycarbonylphenyl)-1-piperazinecarboxamide], the melting point was 242 to 246 °C.

CCCCOC(=O)c1ccc(NC(=O)N2CCN(c3ncnc4cc(OC)c(OC)cc34)CC2)cc1 [Compound 90, N-(4-Butoxycarbonylphenyl)-4-(6,7-dimethoxy-4-quinazolinyl)-1-piperazinecarboxamide] showed a melting point of 226 to 227 °C.
